Test results reported in PubChem BioAssay AID2060904 (Molecular Pharmacology Branch, DTP, NCI, 2025).

Test system: 349418-098-R-PDC complex spheroid viability
Experiment: Anticancer human tumor 349418-098-R-PDC patient-derived lung adenocarcinoma cell line growth inhibition [RAS]
Details: for IC50: curve of first compound; for viability, T/C: stronger effect = lower value
Summary of the method: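 Tumour cells grown as complex spheroids with HUVEC endothelial cells and mesenchymal stem cells, treated with RAS pathway inhibitor combinations. Each agent spans half-log steps from near clinical Cmax, or 10 microM where Cmax is unknown.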

[1] = second compound 0.00316 µM, first compound 0.0316 µM
[2] = second compound 0.00316 µM, first compound 0.1 µM
[3] = second compound 0.01 µM, first compound 0.0316 µM
[4] = second compound 0.01 µM, first compound 0.1 µM
[5] = second compound 0.0316 µM, first compound 0.0316 µM
[6] = second compound 0.0316 µM, first compound 0.1 µM
[7] = second compound 0.1 µM, first compound 0.0316 µM
[8] = second compound 0.1 µM, first compound 0.1 µM
[9] = second compound 0.316 µM, first compound 0.0316 µM
[10] = second compound 0.316 µM, first compound 0.1 µM
[11] = second compound 1 µM, first compound 0.0316 µM
[12] = second compound 1 µM, first compound 0.1 µM
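Further: spheroids exposed to compound for seven days before viability readout.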

Which IC50 (second compound 0.00316 µM) does the source give for `CC(C)NCC(C(=O)N1CCN(c2ncnc3c2C(C)CC3O)CC1)c1ccc(Cl)cc1` (centres undefined) + C=CC(=O)N1CCN(c2nc(OCC3CCCN3C)nc3c(F)c(-c4nc(N)cc(C)c4C(F)(F)F)c(Cl)cc23)C(C)C1 here?
Its IC50 is 386 nM.

And the IC50 (second compound 0.01 µM)?
The IC50 was 252 nM.

And the IC50 (second compound 0.0316 µM)?
The IC50 was 593 nM.

And the IC50 (second compound 0.1 µM)?
The IC50 was 545 nM.

What about the IC50 (second compound 0.316 µM) of the same compound?
The IC50 was 620 nM.

What about the IC50 (second compound 1 µM) of the same compound?
The IC50 was 553 nM.

And the viability, T/C [1]?
The viability, T/C was 88.2%.

What about the viability, T/C [2] of the same compound?
Its viability, T/C is 86.6%.

And the viability, T/C (second compound 0.00316 µM, first compound 0.316 µM)?
Its viability, T/C is 53.7%.

And the viability, T/C (second compound 0.00316 µM, first compound 1 µM)?
Its viability, T/C is 24.3%.

What about the viability, T/C (second compound 0.00316 µM, first compound 3.16 µM) of the same compound?
The viability, T/C was 17.2%.

What about the viability, T/C (second compound 0.00316 µM, first compound 10 µM) of the same compound?
Its viability, T/C is 7.89%.

And the viability, T/C [3]?
Its viability, T/C is 102%.

And the viability, T/C [4]?
Its viability, T/C is 83.9%.

And the viability, T/C (second compound 0.01 µM, first compound 0.316 µM)?
The viability, T/C was 39.3%.

What about the viability, T/C (second compound 0.01 µM, first compound 1 µM) of the same compound?
The viability, T/C was 23.7%.

What about the viability, T/C (second compound 0.01 µM, first compound 3.16 µM) of the same compound?
The viability, T/C was 15.9%.

What about the viability, T/C (second compound 0.01 µM, first compound 10 µM) of the same compound?
Its viability, T/C is 9.35%.

And the viability, T/C [5]?
The viability, T/C was 78%.

And the viability, T/C [6]?
Its viability, T/C is 77.1%.

And the viability, T/C (second compound 0.0316 µM, first compound 0.316 µM)?
Its viability, T/C is 81.2%.

And the viability, T/C (second compound 0.0316 µM, first compound 1 µM)?
Its viability, T/C is 26.1%.

And the viability, T/C (second compound 0.0316 µM, first compound 3.16 µM)?
Its viability, T/C is 22.7%.

What about the viability, T/C (second compound 0.0316 µM, first compound 10 µM) of the same compound?
Its viability, T/C is 10%.

What about the viability, T/C [7] of the same compound?
The viability, T/C was 70%.

What about the viability, T/C [8] of the same compound?
The viability, T/C was 67.5%.

What about the viability, T/C (second compound 0.1 µM, first compound 0.316 µM) of the same compound?
Its viability, T/C is 67.6%.

What about the viability, T/C (second compound 0.1 µM, first compound 1 µM) of the same compound?
The viability, T/C was 31.1%.

And the viability, T/C (second compound 0.1 µM, first compound 3.16 µM)?
The viability, T/C was 16.1%.

What about the viability, T/C (second compound 0.1 µM, first compound 10 µM) of the same compound?
Its viability, T/C is 9.41%.

And the viability, T/C [9]?
The viability, T/C was 66.8%.

What about the viability, T/C [10] of the same compound?
The viability, T/C was 82.1%.

And the viability, T/C (second compound 0.316 µM, first compound 0.316 µM)?
The viability, T/C was 76.3%.

What about the viability, T/C (second compound 0.316 µM, first compound 1 µM) of the same compound?
The viability, T/C was 32.2%.

And the viability, T/C (second compound 0.316 µM, first compound 3.16 µM)?
The viability, T/C was 24.5%.

And the viability, T/C (second compound 0.316 µM, first compound 10 µM)?
The viability, T/C was 7.85%.

What about the viability, T/C [11] of the same compound?
Its viability, T/C is 72.8%.

And the viability, T/C [12]?
Its viability, T/C is 65.4%.

And the viability, T/C (second compound 1 µM, first compound 0.316 µM)?
Its viability, T/C is 71.8%.

What about the viability, T/C (second compound 1 µM, first compound 1 µM) of the same compound?
The viability, T/C was 28.8%.

And the viability, T/C (second compound 1 µM, first compound 3.16 µM)?
Its viability, T/C is 25%.

What about the viability, T/C (second compound 1 µM, first compound 10 µM) of the same compound?
The viability, T/C was 10.2%.

What does the source list for `CC(C)n1nc(-c2ccc3oc(N)nc3c2)c2c(N)ncnc21` + C=CC(=O)N1CCN(c2nc(OCC3CCCN3C)nc3c(F)c(-c4nc(N)cc(C)c4C(F)(F)F)c(Cl)cc23)C(C)C1?
IC50 (second compound 0.00316 µM): 5.33 nM; IC50 (second compound 0.01 µM): 3.53 nM; IC50 (second compound 0.0316 µM): 3.24 nM; IC50 (second compound 0.1 µM): 3.99 nM; IC50 (second compound 0.316 µM): 3.07 nM; IC50 (second compound 1 µM): 3.64 nM; viability, T/C (second compound 0.00316 µM, first compound 0.000316 µM): 85.2%; viability, T/C (second compound 0.00316 µM, first compound 0.001 µM): 90.4%; viability, T/C (second compound 0.00316 µM, first compound 0.00316 µM): 72.3%; viability, T/C (second compound 0.00316 µM, first compound 0.01 µM): 22.8%; viability, T/C [1]: 8.58%; viability, T/C [2]: 6.85%; viability, T/C (second compound 0.01 µM, first compound 0.000316 µM): 79.3%; viability, T/C (second compound 0.01 µM, first compound 0.001 µM): 124%; viability, T/C (second compound 0.01 µM, first compound 0.00316 µM): 54.2%; viability, T/C (second compound 0.01 µM, first compound 0.01 µM): 15.6%; viability, T/C [3]: 7.53%; viability, T/C [4]: 7.07%; viability, T/C (second compound 0.0316 µM, first compound 0.000316 µM): 76.6%; viability, T/C (second compound 0.0316 µM, first compound 0.001 µM): 115%; viability, T/C (second compound 0.0316 µM, first compound 0.00316 µM): 50.9%; viability, T/C (second compound 0.0316 µM, first compound 0.01 µM): 14.1%; viability, T/C [5]: 8.15%; viability, T/C [6]: 5.8%; viability, T/C (second compound 0.1 µM, first compound 0.000316 µM): 52.8%; viability, T/C (second compound 0.1 µM, first compound 0.001 µM): 98.9%; viability, T/C (second compound 0.1 µM, first compound 0.00316 µM): 58.2%; viability, T/C (second compound 0.1 µM, first compound 0.01 µM): 14.5%; viability, T/C [7]: 8.94%; viability, T/C [8]: 5.94%; viability, T/C (second compound 0.316 µM, first compound 0.000316 µM): 63.4%; viability, T/C (second compound 0.316 µM, first compound 0.001 µM): 90.8%; viability, T/C (second compound 0.316 µM, first compound 0.00316 µM): 49.3%; viability, T/C (second compound 0.316 µM, first compound 0.01 µM): 14%; viability, T/C [9]: 8.74%; viability, T/C [10]: 6.6%; viability, T/C (second compound 1 µM, first compound 0.000316 µM): 57.6%; viability, T/C (second compound 1 µM, first compound 0.001 µM): 79.6%; viability, T/C (second compound 1 µM, first compound 0.00316 µM): 53.8%; viability, T/C (second compound 1 µM, first compound 0.01 µM): 15.2%; viability, T/C [11]: 8.85%; viability, T/C [12]: 5.88%
